# Calls of active or inactive are those of the source. The rule behind the calls is not given here.
# Tests used:
# [1] = Toxicity in mouse; assay type: organism-based; details: in vivo
# SNU-16 = test: Antitumor activity against human SNU16 cells xenografted in nude BALB/c mouse assessed as tumor growth inhibition relative to control; assay type: functional
# [2] = Tmax in CD-1 mouse administered as single po dose by mass spectrometry; assay type: ADME, organism-based; details: in vivo
# [3] = Toxicity in mouse administered as single po dose; assay type: organism-based; details: in vivo
# A2780 = test: Antitumor activity against human A2780 cells xenografted in nude BALB/c mouse assessed as tumor growth inhibition at 20 mg/kg, po qd measured up to 12 days post dose; assay type: functional, organism-based
# Mus musculus = test: Toxicity in nude BALB/c mouse xenografted with human A2780 cells assessed as change in body weight at 20 mg/kg, po qd measured up to 12 days post dose; assay type: organism-based; details: in vivo, 288 h
# [4] = Unbound fraction in plasma (unknown origin); assay type: ADME, cell-free
# [5] = Protein binding in plasma (unknown origin); assay type: ADME, cell-free; details: read-out: PPB (converted)
# [6] = Drug recovery in plasma (unknown origin); assay type: ADME, cell-free
# [7] = Stability in human plasma assessed as parent compound remaining after 75 mins relative to initial time; assay type: ADME, cell-free; details: read-out: Stability
# [8] = Stability in human plasma assessed as parent compound remaining after 2 hrs relative to initial time; assay type: ADME, cell-free; details: read-out: Stability
# [9] = Stability in human plasma assessed as parent compound remaining after 4 hrs relative to initial time; assay type: ADME, cell-free; details: read-out: Stability
# [10] = Stability in human plasma assessed as parent compound remaining after 8 hrs relative to initial time; assay type: ADME, cell-free; details: read-out: Stability
# [11] = Stability in human plasma assessed as parent compound remaining after 24 hrs relative to initial time; assay type: ADME, cell-free; details: read-out: Stability
# [12] = Half life in mouse liver microsomes; assay type: ADME, microsome
# [13] = Half life in rat liver microsomes; assay type: ADME, microsome
# [14] = Half life in dog liver microsomes; assay type: ADME, Canis lupus familiaris, microsome
# [15] = Half life in human liver microsomes; assay type: ADME, microsome
# Cytochrome P450 1A2 = biological target: T1, Cytochrome P450 1A2 (Homo sapiens, UniProt P05177); test: Inhibition of CYP1A2 (unknown origin); assay type: ADME
# T1 sequence (P05177 whole entry): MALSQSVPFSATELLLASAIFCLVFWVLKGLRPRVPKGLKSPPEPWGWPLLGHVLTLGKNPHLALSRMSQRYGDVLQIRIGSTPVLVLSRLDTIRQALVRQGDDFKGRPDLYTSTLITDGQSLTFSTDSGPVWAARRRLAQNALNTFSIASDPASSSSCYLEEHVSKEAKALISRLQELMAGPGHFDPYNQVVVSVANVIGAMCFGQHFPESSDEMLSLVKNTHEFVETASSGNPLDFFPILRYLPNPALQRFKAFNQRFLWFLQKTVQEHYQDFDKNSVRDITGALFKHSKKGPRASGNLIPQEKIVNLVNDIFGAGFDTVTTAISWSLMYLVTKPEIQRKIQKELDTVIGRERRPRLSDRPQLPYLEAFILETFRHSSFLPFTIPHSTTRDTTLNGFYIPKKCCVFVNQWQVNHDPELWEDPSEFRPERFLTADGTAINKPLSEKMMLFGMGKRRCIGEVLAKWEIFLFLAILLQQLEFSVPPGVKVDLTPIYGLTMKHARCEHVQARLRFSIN
# Cytochrome P450 2C9 = Cytochrome P450 2C9 (Homo sapiens, UniProt P11712); test: Inhibition of CYP2C9 (unknown origin); assay type: ADME
# Cytochrome P450 2C19 = Cytochrome P450 2C19 (Homo sapiens, UniProt P33261); test: Inhibition of CYP2C19 (unknown origin); assay type: ADME
# Cytochrome P450 2D6 = Cytochrome P450 2D6 (Homo sapiens, UniProt P10635); test: Inhibition of CYP2D6 (unknown origin); assay type: ADME
# Cytochrome P450 3A4 = Cytochrome P450 3A4 (Homo sapiens, UniProt P08684); test: Inhibition of CYP3A4 (unknown origin); assay type: ADME
# Hs-578T [16] = test: Antiproliferative activity against human Hs 578T cells up to 1000 nM after 72 hrs by ATPlite assay; assay type: functional, cell-based
# BT-549 [17] = test: Antiproliferative activity against human BT549 cells up to 1000 nM after 72 hrs by ATPlite assay; assay type: functional, cell-based
# MDA-MB-436 [18] = test: Antiproliferative activity against human MDA-MB-436 cells up to 1000 nM after 72 hrs by ATPlite assay; assay type: functional, cell-based
# Hs-578T [19] = test: Antiproliferative activity against paclitaxel-resistant human Hs 578T cells 20B clone up to 1000 nM after 72 hrs by ATPlite assay; assay type: functional, cell-based
# Hs-578T [20] = test: Antiproliferative activity against paclitaxel-resistant human Hs 578T cells 10C clone up to 1000 nM after 72 hrs by ATPlite assay; assay type: functional, cell-based
# BT-549 [21] = test: Antiproliferative activity against paclitaxel-resistant human BT549 cells 10A clone up to 1000 nM after 72 hrs by ATPlite assay; assay type: functional, cell-based
# MDA-MB-436 [22] = test: Antiproliferative activity against paclitaxel-resistant human MDA-MB-436 cells 20A clone up to 1000 nM after 72 hrs by ATPlite assay; assay type: functional, cell-based
# MDA-MB-436 [23] = test: Antiproliferative activity against paclitaxel-resistant human MDA-MB-436 cells 20B clone up to 1000 nM after 72 hrs by ATPlite assay; assay type: functional, cell-based
# Breast carcinoma cell = test: Antitumor activity against chemo-refractory disease patient-derived breast cancer cells xenografted in NOD/SCID mouse assessed as tumor growth inhibition at 20 mg/kg, iv administered weekly for 15 days; assay type: functional, organism-based; details: Homo sapiens
# [24] = Efflux ratio of apparent intrinsic permeability in human Caco2 cells after 120 mins by mass spectrometry; assay type: ADME, cell-based; details: Caco-2
# in vitro [25] = details: human, Caco-2
# Description: Apparent intrinsic permeability in human Caco2 cells from apical to basolateral side after 120 mins by mass spectrometry
# in vitro [26] = details: human, Caco-2; remark: listed apart in the source
# Description: Apparent intrinsic permeability in human Caco2 cells from basolateral to apical side after 120 mins by mass spectrometry
# Chain of Cytochrome P450 2C9 (P11712 whole entry): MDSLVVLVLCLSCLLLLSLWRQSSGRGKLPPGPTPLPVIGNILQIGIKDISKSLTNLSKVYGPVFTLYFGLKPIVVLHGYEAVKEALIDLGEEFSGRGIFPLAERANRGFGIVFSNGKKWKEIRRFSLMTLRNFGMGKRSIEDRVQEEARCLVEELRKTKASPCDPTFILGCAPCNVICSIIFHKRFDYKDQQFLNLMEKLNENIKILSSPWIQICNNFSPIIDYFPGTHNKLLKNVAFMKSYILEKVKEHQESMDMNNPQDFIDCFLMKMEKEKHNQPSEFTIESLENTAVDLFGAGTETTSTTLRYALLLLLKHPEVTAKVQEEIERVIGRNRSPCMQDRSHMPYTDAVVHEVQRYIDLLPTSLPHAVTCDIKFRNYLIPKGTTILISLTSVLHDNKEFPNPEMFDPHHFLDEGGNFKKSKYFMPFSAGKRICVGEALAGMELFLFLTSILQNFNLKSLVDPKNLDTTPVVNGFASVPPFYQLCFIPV
# Chain of Cytochrome P450 3A4 (P08684 whole entry): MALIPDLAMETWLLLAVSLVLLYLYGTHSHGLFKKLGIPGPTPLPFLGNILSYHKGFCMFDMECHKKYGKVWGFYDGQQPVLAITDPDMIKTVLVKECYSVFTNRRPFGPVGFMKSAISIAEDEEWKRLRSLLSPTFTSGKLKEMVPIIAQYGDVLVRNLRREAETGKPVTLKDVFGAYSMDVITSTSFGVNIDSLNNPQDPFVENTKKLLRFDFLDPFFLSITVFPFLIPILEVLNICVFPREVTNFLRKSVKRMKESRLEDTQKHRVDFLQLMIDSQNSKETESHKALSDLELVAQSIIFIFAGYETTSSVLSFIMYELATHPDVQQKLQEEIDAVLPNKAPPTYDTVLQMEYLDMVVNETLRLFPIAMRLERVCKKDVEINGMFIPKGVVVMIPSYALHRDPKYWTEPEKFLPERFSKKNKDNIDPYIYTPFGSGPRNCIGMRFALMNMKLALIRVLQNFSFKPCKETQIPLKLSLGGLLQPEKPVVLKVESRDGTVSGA
# Chain of Cytochrome P450 2C19 (P33261 whole entry): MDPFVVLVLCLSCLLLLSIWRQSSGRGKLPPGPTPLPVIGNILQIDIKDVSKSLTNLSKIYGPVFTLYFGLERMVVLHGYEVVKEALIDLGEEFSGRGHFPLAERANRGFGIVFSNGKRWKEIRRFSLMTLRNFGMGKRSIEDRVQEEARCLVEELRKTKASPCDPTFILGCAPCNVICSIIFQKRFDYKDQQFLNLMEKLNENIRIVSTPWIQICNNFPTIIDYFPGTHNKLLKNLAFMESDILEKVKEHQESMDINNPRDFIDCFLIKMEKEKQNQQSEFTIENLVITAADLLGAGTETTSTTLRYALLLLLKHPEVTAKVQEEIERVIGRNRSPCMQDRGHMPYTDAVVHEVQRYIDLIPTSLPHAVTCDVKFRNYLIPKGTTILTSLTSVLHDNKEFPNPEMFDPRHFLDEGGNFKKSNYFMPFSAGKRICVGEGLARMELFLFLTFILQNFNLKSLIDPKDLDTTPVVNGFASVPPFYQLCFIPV
# Chain of Cytochrome P450 2D6 (P10635 whole entry): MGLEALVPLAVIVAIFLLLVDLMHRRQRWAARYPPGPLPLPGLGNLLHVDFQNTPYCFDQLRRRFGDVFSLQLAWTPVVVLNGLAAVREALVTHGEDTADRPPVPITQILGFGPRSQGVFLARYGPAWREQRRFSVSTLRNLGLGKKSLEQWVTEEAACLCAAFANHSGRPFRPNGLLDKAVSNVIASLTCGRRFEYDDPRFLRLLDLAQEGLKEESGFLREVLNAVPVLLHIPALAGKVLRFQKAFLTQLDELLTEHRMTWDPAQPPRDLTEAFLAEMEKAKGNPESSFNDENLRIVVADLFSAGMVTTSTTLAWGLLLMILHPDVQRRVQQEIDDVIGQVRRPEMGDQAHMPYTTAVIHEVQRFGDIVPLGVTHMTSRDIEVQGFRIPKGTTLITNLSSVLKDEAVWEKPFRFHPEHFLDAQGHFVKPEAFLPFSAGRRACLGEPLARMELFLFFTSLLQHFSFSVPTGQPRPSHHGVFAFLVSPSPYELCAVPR
smiles,measurement,setting,value
Cc1ncc(C(=O)Nc2ccc(-c3cccc(NC4CC4)c3)cn2)cn1,MTD,[1],≤ 6 mg/kg
same,TGI,SNU-16,67%
same,Tmax,[2],≤ 15 min
Cc1ncc(C(=O)Nc2ccc(-c3ccsc3)cn2)cn1,MTD,[1],≤ 6 mg/kg
same,TGI,SNU-16,135%
same,MTD,[3],≤ 20 mg/kg
same,TGI,A2780,Active
same,Activity,Mus musculus,Non-Toxic
same,fraction unbound,[4],0.0507
same,fraction unbound,[5],0.0507
same,Drug recovery,[6],93.56%
same,remaining at 1.25 h,[7],91.7%
same,remaining at 2 h,[8],92.2%
same,remaining at 4 h,[9],86.9%
same,remaining at 8 h,[10],71.6%
same,remaining at 24 h,[11],49%
same,half-life,[12],27.3 min
same,half-life,[13],25.9 min
same,half-life,[14],35.2 min
same,half-life,[15],7.5 min
same,IC50,Cytochrome P450 1A2,> 30 µM
same,IC50,Cytochrome P450 2C9,> 30 µM
same,IC50,Cytochrome P450 2C19,> 30 µM
same,IC50,Cytochrome P450 2D6,> 30 µM
same,IC50,Cytochrome P450 3A4,> 30 µM
Cc1ncc(C(=O)Nc2ccc(-c3cccc(C4CC4)c3)cn2)cn1,MTD,[1],≤ 6 mg/kg
same,TGI,SNU-16,73%
same,Tmax,[2],≤ 15 min
CC(C)[N+](C)(CCOC(=O)C1c2ccccc2Oc2ccccc21)C(C)C [PROPANTHELINE],remaining at 1.25 h,[7],13.9%
same,remaining at 2 h,[8],5.16%
same,remaining at 4 h,[9],0.34%
CC(=O)O[C@H]1C(=O)[C@@]2(C)[C@H]([C@H](OC(=O)c3ccccc3)[C@]3(O)C[C@H](OC(=O)[C@H](O)[C@@H](NC(=O)c4ccccc4)c4ccccc4)C(C)=C1C3(C)C)[C@]1(OC(C)=O)CO[C@@H]1C[C@@H]2O,Activity,Hs-578T [16],Active
same,Activity,BT-549 [17],Active
same,Activity,MDA-MB-436 [18],Active
same,Activity,Hs-578T [19],inactive
same,Activity,Hs-578T [20],inactive
same,Activity,BT-549 [21],inactive
same,Activity,MDA-MB-436 [22],inactive
same,Activity,MDA-MB-436 [23],inactive
same,TGI,Breast carcinoma cell,inactive
COC(=O)c1ccccc1-c1c2ccc(=N)cc-2oc2cc(N)ccc12.Cl [RHODAMINE123],efflux ratio at 2 h,[24],11.7
same,Papp A→B at 2 h,in vitro [25],0.61 ×10⁻⁶ cm/s
same,Papp B→A at 2 h,in vitro [26],7.17 ×10⁻⁶ cm/s
O=C(Nc1ccc(-c2cccc(Cl)c2)cn1)c1cncnc1,MTD,[1],≤ 6 mg/kg
same,TGI,SNU-16,66%
